Results taken from patent US3931196A, “Phosphinolines and phosphindolines” (Monash University, priority 1972, dated 1976).

Experiments:
[1] = McKenzie Beechey Mouse Tail Stimulation Test (analgesic activity); format: in vivo; settings: compound active at 16mg/kg
Description: The compounds described above were subjected to a Mouse Writhing Test and to the McKenzie Beechey Mouse Tail Stimulation Test (1962, Archives Internationales de Pharmacodynamae et de Therapie, 135) to determine their analgesic activities. The test compounds were prepared as 1.0% solutions in carboxymethylcellulose. The control in all tests was carboxymethylcellulose.

[2] = toxicity test (LD50); settings: in vivo, species and route not given

CN(C)CCP1(=S)CCCc2ccccc21 (centres unmarked) [Compound 19, 1-(2-N,N-Dimethylamino)ethyl-1-thio-1,2,3,4-tetrahydrophosphinoline]
activity relative to morphine in the Tail Stimulation Test [1]: comparable to morphine | LD50 [2]: 170 mg/kg
